Measurements: patent US6395893B1, “Crystallization of lactitol, crystalline lactitol product and use thereof” (Xyrofin Oy, priority 2000, dated 2002)
Like-named read-outs stand apart in the source and are kept apart here.

Columns and labels:
Format in all cases: physicochemical
[1] = Tablet friability (Key Instruments friability tester); conditions: for Friability (10 tabs): tablet, percentage weight loss, dropped 100 times
Protocol: (§1) The material under evaluation was mixed in a laboratory scale Turbula mixer for 2 minutes with 0.5% magnesium stearate as lubricant. The mixed sample was then tabletted on a Manesty 2C single punch press using a 15 mm diameter flat-faced bevelled edge punch. The compression force was adjusted by altering the drop of the top punch. The compression force is indicated by an arbitrary figure. The higher the number, the greater the compression. These figures can only be used as a comparison for each series of compressions. As soon as the material is changed or any of the machine settings are altered the numbers cannot be compared. The adjustment is such that it cannot be exactly reproduced, therefore, these figures should only be seen as a means of differentiating between samples and indicating either increasing or decreasing compression force. Tablet friability was measured using a Key Instruments friability tester. Ten tablets were dropped 100 times and the percentage weight loss recorded. Any tablets that are badly chipped are removed prior to weighing.

[2] = Tablet hardness (Key Instruments hardness tester); conditions: for Hardness / Hardness (in brackets): tablet; for Hardness: 24 hours after production; for Hardness (in brackets): analysis performed during production; for Maximum hardness: tablets over the range of compression forces
Protocol: as §1, with “hardness” for “friability”, “tablet hardness tester which measures the force required to break the tablet across its diameter.” for “friability tester.”, “tested” for “dropped 100 times”, “an average reading” for “the percentage weight loss”, “recorded.” for “recorded. Any tablets that are badly chipped are removed prior to weighing.”

[3] = Particle size analysis of chocolate; conditions: chocolate made with the lactitol
Protocol: (§2) The milk powder, microcrystalline lactitol, Litesse II (modified polydextrose), vanillin and cocoa liquor were mixed in a Stephan mixer with a portion of the cocoa butter. The mixture was passed through a three roll refiner to produce a flake. The flake was mixed again in the Stephan mixer and a farther portion of cocoa butter was added. The mix was re-refined with the pressures increased to produce a flake with an acceptable particle size.
There was an insignificant increase in the particle size of the chocolate made using microcrystalline lactitol (10-12 μm) compared to the one with lactitol monohydrate (9-10 μm).

[4] = Particle size distribution by sieve analysis; conditions: for Coefficient of variation: of particle size
Excerpt: Particle size distribution: Sieve analysis was used to determine the particle size.

[5] = Rate of solution; conditions: 100 g in 100 g of water at 20° C., paddle mixer 250 rpm
Protocol: Rate of solution: 100 g of the sample was put in 100 g of water at 20° C. and 40° C. A small paddle mixer, 250 rpm, was used to mix the solution. During the dissolution the refractive index was measured.

[6] = Flowability
Protocol: (§3) Flowability: A 500 g sample was poured to a 500 ml measuring cylinder. The sample was tapped 10 times, levelled and the amount of the sample was weighed.

[7] = Viscosity of chocolate on storage (Haake RV20 viscometer); conditions: chocolate made with the lactitol, held at 50° C. for one week
Protocol: as §2
The resulting flakes were stored ready for conching. Prior to conching the flakes were pre-warmed in an oven set to 50° C. The flake was added to a conche with the temperature set to 60° C. On loading the remaining cocoa butter was added to give a final fat content of 35 %. A small amount of the lecithin was added at this stage. The sample was conched for 24 hours. The remaining lecithin was added I hour prior to the removal of the batch from the conche.
For the sake of comparison the procedure was repeated identically with another batch except that the microcrystalline lactitol was replaced by standard crystalline lactitol monohydrate (Lactitol MC, Xyrofin Oy).
The viscosity of the two samples was measured using a Haake RV20 viscometer with an RC20 rheocontroller fitted. […]

[8] = Hygroscopicity (humidity cabinet)
Protocol: Hygroscopicity: 10 g of the sample was weighed to a petri dish. The open dish was put into a humidity cabinet. The change in weight was measured. The humidity cabins at 25° C. and relative humidity 60% and at 40° C. and relative humidity 70% were used.

[9] = Heat of solution (calorimeter); conditions: 40 g in 670 g distilled water at 25° C.
Protocol: Heat of solution: 40 g of the sample was dissolved in 670 g of distilled water at 25° C. The heat of solution was measured with a calorimeter operating in a constant temperature environment.

[10] = Bulk density; conditions: tapped 10 times
Protocol: as §3

[11] = Water content (Karl Fischer)
Protocol: The water content of the microcrystalline lactitol product was analyzed by the Karl Fischer method and the melting behaviour was measured by differential scanning calorimetry (DSC).
Moisture was measured using coulometric Karl Fischer titration

[12] = compression 32.5, listed as Microcrystalline Lactitol Sample
[13] = compression 33, listed as Microcrystalline Lactitol Sample
[14] = compression 33.5, listed as Microcrystalline Lactitol Sample
[15] = compression 34, listed as Microcrystalline Lactitol Sample

OC[C@@H](O)[C@@H](O[C@@H]1O[C@H](CO)[C@H](O)[C@H](O)[C@H]1O)[C@H](O)[C@@H](O)CO [Granulated Lactitol, lactitol]
Friability (10 tabs) ([1]; compression 32.5): 4.7%
Friability (10 tabs) ([1]; compression 33): 1.79%
Friability (10 tabs) ([1]; compression 33.5): 1.08%
Friability (10 tabs) ([1]; compression 34): 0.34%
Hardness ([2]; compression 32.5 (arbitrary figure)): 70 N
Hardness (in brackets) ([2]; compression 32.5): 82 N
Hardness ([2]; compression 33 (arbitrary figure)): 139 N
Hardness (in brackets) ([2]; compression 33): 133 N
Hardness ([2]; compression 33.5 (arbitrary figure)): 193 N
Hardness (in brackets) ([2]; compression 33.5): 213 N
Hardness ([2]; compression 34 (arbitrary figure)): 240 N
Hardness (in brackets) ([2]; compression 34): 307 N
Maximum hardness [2]: 240 N

OC[C@@H](O)[C@@H](O[C@@H]1O[C@H](CO)[C@H](O)[C@H](O)[C@H]1O)[C@H](O)[C@@H](O)CO [lactitol monohydrate]
Particle size of the chocolate ([3]; monohydrate): 9-10 μm
Friability results (in words) ([1]; tablets, all compression forces): all of the tablets totally disintegrating during the test
Mean particle size ([4]; monohydrate): 0.47 mm
Sieve analysis 0 ([4]; monohydrate): 0.0
Sieve analysis >0.100 mm ([4]; monohydrate): 0.7
Sieve analysis >0.180 mm ([4]; monohydrate): 4.8
Sieve analysis >0.250 mm ([4]; monohydrate): 15.1
Sieve analysis >0.315 mm ([4]; monohydrate): 25.8
Sieve analysis >0.450 mm ([4]; monohydrate): 20.6
Sieve analysis >0.560 mm ([4]; monohydrate): 17.9
Sieve analysis >0.710 mm ([4]; monohydrate): 15.2
Coefficient of variation ([4]; monohydrate): 30
Time to dissolve ([5]; listed as the monohydrate, monohydrate): about 5 minutes
Maximum hardness ([2]; listed as crystalline lactitol monohydrate, monohydrate): < 70 N
Flowability ([6]; monohydrate): 23 s
Viscosity change of chocolate on storage ([7]; monohydrate): considerable thickening
Water sorption ([8]; 25° C. and 60% relative humidity, listed as the monohydrate, monohydrate): 0.02%
Water sorption ([8]; 40° C. and 70% relative humidity, listed as the monohydrate, monohydrate): 0.04%
Heat of solution ([9]; monohydrate): 15.6 cal/g
Bulk density ([10]; monohydrate): 360 g/500 ml

OC[C@@H](O)[C@@H](O[C@@H]1O[C@H](CO)[C@H](O)[C@H](O)[C@H]1O)[C@H](O)[C@@H](O)CO [microcrystalline lactitol, lactitol]
Particle size of the chocolate [3]: 10-12 μm
Friability (10 tabs) ([1]; compression 32): 1.31%
Friability (10 tabs) [1, 12]: 0.32%
Friability (10 tabs) [1, 13]: 0.22%
Friability (10 tabs) [1, 14]: 0.5%
Friability (10 tabs) [1, 15]: 0.38%
Friability (10 tabs) ([1]; compression 34.5): 0.69%
Mean particle size [4]: 0.29 mm
Sieve analysis 0 [4]: 1.6
Sieve analysis >0.100 mm [4]: 13.0
Sieve analysis >0.180 mm [4]: 21.1
Sieve analysis >0.250 mm [4]: 21.6
Sieve analysis >0.315 mm [4]: 31.5
Sieve analysis >0.450 mm [4]: 8.3
Sieve analysis >0.560 mm [4]: 2.3
Sieve analysis >0.710 mm [4]: 0.6
Coefficient of variation [4]: 39
Water content of the product ([11]; Karl Fischer method): 3.5%
Moisture ([11]; coulometric Karl Fischer titration): 5.1%
Time to dissolve [5]: 4 min
Hardness ([2]; compression 32 (arbitrary figure)): 90 N
Hardness (in brackets) ([2]; compression 32): 85 N
Hardness ([2]; compression 32.5 (arbitrary figure), listed as Microcrystalline Lactitol Sample): 156 N
Hardness (in brackets) [2, 12]: 137 N
Hardness ([2]; compression 33 (arbitrary figure), listed as Microcrystalline Lactitol Sample): 252 N
Hardness (in brackets) [2, 13]: 257 N
Hardness ([2]; compression 33.5 (arbitrary figure), listed as Microcrystalline Lactitol Sample): 319 N
Hardness (in brackets) [2, 14]: (301) N
Hardness ([2]; compression 34 (arbitrary figure), listed as Microcrystalline Lactitol Sample): 134 N
Hardness (in brackets) [2, 15]: (335) N
Hardness ([2]; compression 34.5 (arbitrary figure)): 330 N
Hardness (in brackets) ([2]; compression 34.5): (344) N
Flowability [6]: 17 s
Viscosity change of chocolate on storage [7]: no significant increase in viscosity
Water sorption ([8]; 25° C. and 60% relative humidity): 0.05%
Water sorption ([8]; 40° C. and 70% relative humidity): 0.11%
Heat of solution [9]: 15.4 cal/g
Bulk density [10]: 325 g/500 ml
